Measurements as given in patent US9034882B2, “Inhibitors of human immunodeficiency virus replication” (priority 2012, dated 2015).

test system: recombinant NL-Rluc virus; assay: Inhibition of HIV replication (NL-RLuc luciferase reporter virus in MT-2 cells); format: cell-based; settings: Human immunodeficiency virus 1, MT2, 120 h, read-out: Activity

Cc1nc2cc(-c3ccc4c(c3)CCCC4)nn2c(N2CCC(C)CC2)c1[C@H](OC(C)(C)C)C(=O)O [Example 34, (S)-2-(tert-Butoxy)-2-(5-methyl-7-(4-methylpiperidin-1-yl)-2-(5,6,7,8-tetrahydronaphthalen-2-yl)pyrazolo[1,5-a]pyrimidin-6-yl)acetic acid] and Cc1nc2cc(-c3ccc4c(c3)CCCC4)nn2c(N2CCC(C)(C)CC2)c1[C@H](OC(C)(C)C)C(=O)O [Example 33, (S)-2-(tert-Butoxy)-2-(7-(4,4-dimethylpiperidin-1-yl)-5-methyl-2-(5,6,7,8-tetrahydronaphthalen-2-yl)pyrazolo[1,5-a]pyrimidin-6-yl)acetic acid] fall in the same range of EC50: 0.1 to 1 µM for the first, 0.1 to 1 µM for the second.

Cc1nc2cc(-c3ccccc3)nn2c(N2CCC3(CC2)CC3)c1[C@H](OC(C)(C)C)C(=O)O [Example 30, (S)-2-(tert-butoxy)-2-(5-methyl-2-phenyl-7-(6-azaspiro[2.5]octan-6-yl)pyrazolo[1,5-a]pyrimidin-6-yl)acetic acid] and Cc1nc2cc(-c3ccccc3)nn2c(N2CCC(C)(C)CC2)c1C(OC(C)(C)C)C(=O)O (centres unmarked) [Example 1, 2-(tert-butoxy)-2-(7-(4,4-dimethylpiperidin-1-yl)-5-methyl-2-phenylpyrazolo[1,5a]pyrimidin-6-yl)acetic acid] fall in the same range of EC50: 0.1 to 1 µM for the first, 0.1 to 1 µM for the second.

Cc1nc2cc(-c3ccccc3)nn2c(N2CCC(C(N)=O)CC2)c1C(OC(C)(C)C)C(=O)O (centres unmarked) [Example 24] and Cc1nc2cc(-c3ccccc3)nn2c(N2CCC(O)CC2)c1C(OC(C)(C)C)C(=O)O (centres unmarked) [Example 15] cannot be ordered by EC50: greater than 1 µM for the first, greater than 1 µM for the second.

Cc1nc2cc(-c3cccc(-c4ccc5cnn(C)c5c4)c3)nn2c(N2CCC3(CC2)CC3)c1[C@H](OC(C)(C)C)C(=O)O [Example 60, (S)-2-(tert-Butoxy)-2-(5-methyl-2-(3-(1-methyl-1H-indazol-6-yl)phenyl)-7-(6-azaspiro[2.5]octan-6-yl)pyrazolo[1,5-a]pyrimidin-6-yl)acetic acid] and Cc1nc2cc(-c3cccc(-c4ccc5cnn(C)c5c4)c3)nn2c(N2CCC(C)(C)CC2)c1[C@H](OC(C)(C)C)C(=O)O [Example 57, (S)-2-(tert-Butoxy)-2-(7-(4,4-dimethylpiperidin-1-yl)-5-methyl-2-(3-(1-methyl-1H-indazol-6-yl)phenyl)pyrazolo[1,5-a]pyrimidin-6-yl)acetic acid] cannot be ordered by EC50: less than 0.1 µM for the first, less than 0.1 µM for the second.

Cc1nc2cc(-c3cccc(-c4ccccc4)c3)nn2c(N2CCOCC2)c1[C@H](OC(C)(C)C)C(=O)O [Example 44, (S)-2-(2-([1,1′-Biphenyl]-3-yl)-5-methyl-7-morpholinopyrazolo[1,5-a]pyrimidin-6-yl)-2-(tert-butoxy)acetic acid] and Cc1nc2cc(-c3cccc(-c4ccccc4)c3)nn2c(N2CCS(=O)(=O)CC2)c1[C@H](OC(C)(C)C)C(=O)O [Example 46, (S)-2-(2-([1,1′-Biphenyl]-3-yl)-7-(1,1-dioxidothiomorpholino)-5-methylpyrazolo[1,5-a]pyrimidin-6-yl)-2-(tert-butoxy)acetic acid] fall in the same range of EC50: 0.1 to 1 µM for the first, 0.1 to 1 µM for the second.

Cc1nc2cc(-c3cccc(-c4ccccc4)n3)nn2c(N2CCC(C)(C)CC2)c1[C@H](OC(C)(C)C)C(=O)O [Example 67, (S)-2-(tert-Butoxy)-2-(7-(4,4-dimethylpiperidin-1-yl)-5-methyl-2-(6-phenylpyridin-2-yl)pyrazolo[1,5-a]pyrimidin-6-yl)acetic acid] and Cc1nc2cc(-c3cccc(Oc4ccccc4)n3)nn2c(N2CCC(C)(C)CC2)c1[C@H](OC(C)(C)C)C(=O)O [Example 68, (S)-2-(tert-Butoxy)-2-(7-(4,4-dimethylpiperidin-1-yl)-5-methyl-2-(6-phenoxypyridin-2-yl)pyrazolo[1,5-a]pyrimidin-6-yl)acetic acid] fall in the same range of EC50: 0.1 to 1 µM for the first, 0.1 to 1 µM for the second.

First: Cc1nc2cc(-c3cccc(-c4ccccc4F)c3)nn2c(N2CCC(C)(C)CC2)c1[C@H](OC(C)(C)C)C(=O)O [Example 52, (S)-2-(tert-Butoxy)-2-(7-(4,4-dimethylpiperidin-1-yl)-2-(2′-fluoro-[1,1′-biphenyl]-3-yl)-5-methylpyrazolo[1,5-a]pyrimidin-6-yl)acetic acid]
Second: Cc1nc2cc(-c3cccc(-c4ccccc4F)c3)nn2c(N2CCC3(CC2)CC3)c1[C@H](OC(C)(C)C)C(=O)O [Example 51, (S)-2-(tert-Butoxy)-2-(2-(2′-fluoro-[1,1′-biphenyl]-3-yl)-5-methyl-7-(6-azaspiro[2.5]octan-6-yl)pyrazolo[1,5-a]pyrimidin-6-yl)acetic acid]
The EC50 of the first is lower: less than 0.1 µM for the first, 0.1 to 1 µM for the second. The first is the more potent here.

First: Cc1nc2cc(-c3ccccc3)nn2c(N2CCCCCC2)c1C(OC(C)(C)C)C(=O)O (centres unmarked) [Example 6, 2(7-(azepan-1-yl)-5-methyl-2-phenylpyrazolo[1,5a]pyrimidin-6-yl)-2-(tert-butoxy)-acetic acid]
Second: Cc1nc2cc(-c3ccccc3)nn2c(N2CCC(C)CC2)c1C(OC(C)(C)C)C(=O)O (centres unmarked) [Example 8, 2-(tert-butoxy)-2-(5-methyl-7-(4-methylpiperidin-1-yl)-2-phenylpyrazolo[1,5a]pyrimidin-6-yl)acetic acid]
The EC50 of the first is higher: greater than 1 µM for the first, 0.1 to 1 µM for the second. The second is the more potent here.

Compared with Cc1nc2cc(-c3ccccc3)nn2c(N2CCCCC2C)c1C(OC(C)(C)C)C(=O)O (centres unmarked) [Example 19], Cc1nc2cc(-c3ccccc3)nn2c(N2CCCC(C)C2)c1C(OC(C)(C)C)C(=O)O (centres unmarked) [Example 10] is higher in EC50: 0.1 to 1 µM for the first, greater than 1 µM for the second.

First: COC1CCN(c2c(C(OC(C)(C)C)C(=O)O)c(C)nc3cc(-c4ccccc4)nn23)CC1 (centres unmarked) [Example 11]
Second: Cc1nc2cc(-c3ccccc3)nn2c(N2CCC(C(C)C)CC2)c1C(OC(C)(C)C)C(=O)O (centres unmarked) [Example 16]
The EC50 of the first is higher: greater than 1 µM for the first, 0.1 to 1 µM for the second. The second is the more potent here.

Cc1nc2cc(-c3cccc(-c4ccccc4F)c3)nn2c(N2CCC3(C)CC3C2)c1[C@H](OC(C)(C)C)C(=O)O (stereo partly drawn) [Example 63, (2S)-2-(tert-Butoxy)-2-(2-(2′-fluoro-[1,1′-biphenyl]-3-yl)-5-methyl-7-(6-methyl-3-azabicyclo[4.1.0]heptan-3-yl)pyrazolo[1,5-a]pyrimidin-6-yl)acetic acid] and Cc1nc2cc(-c3cccc(-c4ccccc4)c3)nn2c(N2CCC3(CC2)CC3)c1[C@H](OC(C)(C)C)C(=O)O [Example 47, (S)-2-(2-([1,1′-Biphenyl]-3-yl)-5-methyl-7-(6-azaspiro[2.5]octan-6-yl)pyrazolo[1,5-a]pyrimidin-6-yl)-2-(tert-butoxy)acetic acid] fall in the same range of EC50: 0.1 to 1 µM for the first, 0.1 to 1 µM for the second.

Cc1nc2cc(-c3cccc(-c4cccc(F)c4)c3)nn2c(N2CCC3(CC2)CC3)c1[C@H](OC(C)(C)C)C(=O)O [Example 53, (S)-2-(tert-Butoxy)-2-(2-(3′-fluoro-[1,1′-biphenyl]-3-yl)-5-methyl-7-(6-azaspiro[2.5]octan-6-yl)pyrazolo[1,5-a]pyrimidin-6-yl)acetic acid] and Cc1nc2cc(-c3cccc(Oc4ccccc4)c3)nn2c(N2CCC(C)(C)CC2)c1[C@H](OC(C)(C)C)C(=O)O [Example 66, (S)-2-(tert-Butoxy)-2-(7-(4,4-dimethylpiperidin-1-yl)-5-methyl-2-(3-phenoxyphenyl)pyrazolo[1,5-a]pyrimidin-6-yl)acetic acid] fall in the same range of EC50: 0.1 to 1 µM for the first, 0.1 to 1 µM for the second.

First: Cc1nc2cc(-c3ccccc3)nn2c(N2CCc3ccccc3C2)c1C(OC(C)(C)C)C(=O)O (centres unmarked) [Example 3, 2-(tert-butoxy)-2-(7-(3,4-dijydroisoquinolin-2(1H)-yl)-5-methyl-2-phenylpyrazolo[1,5a]pyrimidin-6-yl)acetic acid]
Second: Cc1nc2cc(-c3ccccc3)nn2c(N2CCC(C)(C)C2)c1[C@H](OC(C)(C)C)C(=O)O [Example 28, (S)-2-(tert-butoxy)-2-(7-(3,3-dimethylpyrrolidin-1-yl)-5-methyl-2-phenylpyrazolo[1,5-a]pyrimidin-6-yl)acetic acid]
The EC50 of the first is higher: greater than 1 µM for the first, 0.1 to 1 µM for the second. The second is the more potent here.

Cc1nc2cc(-c3ccccc3)nn2c(N2C(C)COCC2C)c1C(OC(C)(C)C)C(=O)O (centres unmarked) [Example 9] and Cc1nc2cc(-c3ccccc3)nn2c(N2CCC(C(C)(C)C)CC2)c1C(OC(C)(C)C)C(=O)O (centres unmarked) [Example 17] cannot be ordered by EC50: greater than 1 µM for the first, greater than 1 µM for the second.

Cc1nc2cc(-c3ccccc3)nn2c(N2CC[C@@H]3CCCC[C@@H]3C2)c1C(OC(C)(C)C)C(=O)O (some centres unmarked) [Example 14] and Cc1nc2cc(-c3cccc(-c4ccccc4)c3)nn2c(N2[C@@H]3CCC[C@H]2CC3)c1[C@H](OC(C)(C)C)C(=O)O [Example 43, (S)-2-(2-([1,1′-Biphenyl]-3-yl)-7-((1R,5S)-8-azabicyclo[3.2.1]octan-8-yl)-5-methylpyrazolo[1,5-a]pyrimidin-6-yl)-2-(tert-butoxy)acetic acid] fall in the same range of EC50: 0.1 to 1 µM for the first, 0.1 to 1 µM for the second.

Compared with Cc1nc2cc(-c3cccc(OCc4ccccc4)c3)nn2c(N2CCC(C)CC2)c1C(OC(C)(C)C)C(=O)O (centres unmarked) [Example 31, 2-(2-(3-(benzyloxy)phenyl)-5-methyl-7-(4-methylpiperidin-1-yl)pyrazolo[1,5-a]pyrimidin-6-yl)20(tert-butoxy)acetic acid], Cc1nc2cc(-c3cccc(-c4ccccc4)c3)nn2c(N2[C@@H]3CC[C@H]2COC3)c1[C@H](OC(C)(C)C)C(=O)O [Example 45, (S)-2-(2-([1,1′-Biphenyl]-3-yl)-7-((1R,5S)-3-oxa-8-azabicyclo[3.2.1]octan-8-yl)-5-methylpyrazolo[1,5-a]pyrimidin-6-yl)-2-(tert-butoxy)acetic acid] is higher in EC50: less than 0.1 µM for the first, greater than 1 µM for the second. The first is the more potent here.

With Cc1nc2nc(-c3ccccc3)nn2c(N2CCCC(C)(C)C2)c1C(OC(C)(C)C)C(=O)O (centres unmarked) [Example 41, 2-(tert-Butoxy)-2-(7-(3,3-dimethylpiperidin-1-yl)-5-methyl-2-phenyl-[1,2,4]triazolo[1,5-a]pyrimidin-6-yl)acetic acid] the EC50 was less than 0.1 µM.

same assay, conditions: Human immunodeficiency virus 1, MT2, 120 h, read-out: EC50 μM

Compared with Cc1nc2cc(-c3cccc(-c4ccccc4F)c3)nn2c(N2CCC(C)(C)CC2)c1[C@H](OC(C)(C)C)C(=O)O [Example 52, (S)-2-(tert-Butoxy)-2-(7-(4,4-dimethylpiperidin-1-yl)-2-(2′-fluoro-[1,1′-biphenyl]-3-yl)-5-methylpyrazolo[1,5-a]pyrimidin-6-yl)acetic acid], Cc1nc2cc(-c3ccccc3)nn2c(N2CCC(C)(C)CC2)c1C(OC(C)(C)C)C(=O)O (centres unmarked) [Example 1, 2-(tert-butoxy)-2-(7-(4,4-dimethylpiperidin-1-yl)-5-methyl-2-phenylpyrazolo[1,5a]pyrimidin-6-yl)acetic acid] is 11-fold higher in EC50: 0.05 µM for the first, 0.55 µM for the second.

Cc1nc2cc(-c3ccccc3)nn2c(N2CCC(C)CC2)c1C(OC(C)(C)C)C(=O)O (centres unmarked) [Example 8, 2-(tert-butoxy)-2-(5-methyl-7-(4-methylpiperidin-1-yl)-2-phenylpyrazolo[1,5a]pyrimidin-6-yl)acetic acid] and Cc1nc2cc(-c3ccccc3)nn2c(N2CCC(C(C)C)CC2)c1C(OC(C)(C)C)C(=O)O (centres unmarked) [Example 16] are within 1.5-fold of each other in EC50: 0.72 µM for the first, 0.77 µM for the second.

Going from Cc1nc2cc(-c3cccc(-c4ccccc4)c3)nn2c(N2[C@@H]3CC[C@H]2COC3)c1[C@H](OC(C)(C)C)C(=O)O [Example 45, (S)-2-(2-([1,1′-Biphenyl]-3-yl)-7-((1R,5S)-3-oxa-8-azabicyclo[3.2.1]octan-8-yl)-5-methylpyrazolo[1,5-a]pyrimidin-6-yl)-2-(tert-butoxy)acetic acid] to Cc1nc2cc(-c3cccc(-c4ccccc4)c3)nn2c(N2[C@@H]3CCC[C@H]2CC3)c1[C@H](OC(C)(C)C)C(=O)O [Example 43, (S)-2-(2-([1,1′-Biphenyl]-3-yl)-7-((1R,5S)-8-azabicyclo[3.2.1]octan-8-yl)-5-methylpyrazolo[1,5-a]pyrimidin-6-yl)-2-(tert-butoxy)acetic acid], the EC50 falls from 3.14 µM to 0.78 µM (4-fold). The second is the more potent here.

same assay, conditions: read-out: Activity; MT-2 cells infected with NL-RLuc virus, 5 days of incubation, luciferase readout; serum condition not given

Cc1nc2cc(-c3cccc(-c4ccccc4F)c3)nn2c(N2CCC3(C)CC3C2)c1[C@H](OC(C)(C)C)C(=O)O (stereo partly drawn) [Example 64, (2S)-2-(tert-Butoxy)-2-(2-(2′-fluoro-[1,1′-biphenyl]-3-yl)-5-methyl-7-(6-methyl-3-azabicyclo[4.1.0]heptan-3-yl)pyrazolo[1,5-a]pyrimidin-6-yl)acetic acid] and Cc1nc2cc(-c3ccccc3)nn2c(N2CCCCC2C)c1C(OC(C)(C)C)C(=O)O (centres unmarked) [Example 20] fall in the same range of EC50: 0.1 to 1 µM for the first, 0.1 to 1 µM for the second.
